Patent US20080280288A1, “Assay Method to Predict Sensitivity of Cancer Cell to Anticancer Drug” (priority 2004, published 2008)
“Also recorded” adds a separate entry of the source.

Tests used:
[1] = system: FaDu (head & neck) human cancer cell line; test: FaDu subcutaneous xenograft in nude mice, relative tumor volume ratio; format: in vivo; conditions: FaDu s.c. in nude mice; intravenously 10 mg/kg/day for five days
Protocol: (§1) The 25 human cancer cells proliferated in culture flasks or in the subcutaneous tissues of the nude mice were subcutaneously implanted to the bodysides of nude mice, and the mice were classified into a group of 5 control mice and a group of 5 treated mice of the compound 2 so that the average tumor volume of each group was uniform at the time of a tumor volume of 100 mm^3 or larger. The mice of the treated group were intravenously infused at 10 mg/kg/day for five days, and the mice of the control group were not treated or infused with the vehicle. The tumor volume was measured from day 1, subsequently measured over time on Day 5, 8, 12, 15, and a relative tumor volume ratio (T/C %)was estimated.
(§2) The cancer cells proliferated in culture flasks or in the subcutaneous tissues of the nude mice were subcutaneously implanted to the bodysides of nude mice, and the mice were classified into a group of 5 control mice and a group of 5 treated mice of the compounds so that the average tumor volume of each group was uniform at the time of a tumor volume of 100 mm^3 or larger. The mice of the treated group were intravenously infused at 10 mg/kg/day for five days, and the mice of the control group were not treated or infused with the vehicle. The tumor volume was measured from Day 1, and subsequently measured over time on Day 5, 8, 12, 15, and the relative tumor volume ratio was estimated. However, the experiment was basically discontinued at Day 15 in evaluation of the compound 1. In Table 2, the T/C % of the compounds 1, 2, 4 and the compound 2 in Example 2 to each cancer cell are shown.

[2] = system: SW620 (colorectal) human cancer cell line; test: SW620 subcutaneous xenograft in nude mice, relative tumor volume ratio; format: in vivo; conditions: SW620 s.c. in nude mice; intravenously 10 mg/kg/day for five days
Protocol: as §1
(§3) The cancer cells proliferated in culture flasks or in the subcutaneous tissues of the nude mice were subcutaneously implanted to the bodysides of nude mice, and the mice were classified into a group of 5 control mice and a group of 5 treated mice of the compounds so that the average tumor volume of each group was uniform at the time of a tumor volume of 100 mm^3 or larger. The mice of the treated group were intravenously infused at 10 mg/kg/day for five days, and the mice of the control group were not treated or infused with the vehicle. The tumor volume was measured from Day 1, and subsequently measured over time on Day 5, 8, 12, 15, and the relative tumor volume ratio was estimated. […]

[3] = system: Calu-1 (NSCLC) human cancer cell line; test: Calu-1 subcutaneous xenograft in nude mice, relative tumor volume ratio; format: in vivo; conditions: Calu-1 s.c. in nude mice; intravenously 10 mg/kg/day for five days
Protocol: as §1

[4] = system: NCI-H522 (SCLC) human cancer cell line; test: NCI-H522 subcutaneous xenograft in nude mice, relative tumor volume ratio; format: in vivo; conditions: NCI-H522 s.c. in nude mice; intravenously 10 mg/kg/day for five days
Protocol: as §1, §3

[5] = system: NCI-H460 (NSCLC) human cancer cell line; test: NCI-H460 subcutaneous xenograft in nude mice, relative tumor volume ratio; format: in vivo; conditions: for Tumor volume ratio (T/C %): NCI-H460 s.c. in nude mice, intravenously 10 mg/kg/day for five days
Protocol: as §1, §2

[6] = system: LC-6-JCK (NSCLC) human cancer cell line; test: LC-6-JCK subcutaneous xenograft in nude mice, relative tumor volume ratio; format: in vivo; conditions: LC-6-JCK s.c. in nude mice; intravenously 10 mg/kg/day for five days
Protocol: as §1, §3

[7] = system: PC-3 (prostate) human cancer cell line; test: PC-3 subcutaneous xenograft in nude mice, relative tumor volume ratio; format: in vivo; conditions: PC-3 s.c. in nude mice; intravenously 10 mg/kg/day for five days
Protocol: as §1, §2

[8] = system: BSY-1 (breast) human cancer cell line; test: BSY-1 subcutaneous xenograft in nude mice, relative tumor volume ratio; format: in vivo; conditions: for Tumor volume ratio (T/C %): BSY-1 s.c. in nude mice, intravenously 10 mg/kg/day for five days
Protocol: as §1, §2

[9] = system: WiDr (colorectal) human cancer cell line; test: WiDr subcutaneous xenograft in nude mice, relative tumor volume ratio; format: in vivo; conditions: WiDr s.c. in nude mice; intravenously 10 mg/kg/day for five days
Protocol: as §1, §2

[10] = system: DLD-1 (colorectal) human cancer cell line; test: DLD-1 subcutaneous xenograft in nude mice, relative tumor volume ratio; format: in vivo; conditions: DLD-1 s.c. in nude mice; intravenously 10 mg/kg/day for five days
Protocol: as §1, §3

[11] = system: MDA-MB435 (breast) human cancer cell line; test: MDA-MB435 subcutaneous xenograft in nude mice, relative tumor volume ratio; format: in vivo; conditions: MDA-MB435 s.c. in nude mice; intravenously 10 mg/kg/day for five days
Protocol: as §1, §3

[12] = system: KM12 (colorectal) human cancer cell line; test: KM12 subcutaneous xenograft in nude mice, relative tumor volume ratio; format: in vivo; conditions: KM12 s.c. in nude mice; intravenously 10 mg/kg/day for five days
Protocol: as §1

[13] = system: NCI-H69 (SCLC) human cancer cell line; test: NCI-H69 subcutaneous xenograft in nude mice, relative tumor volume ratio; format: in vivo; conditions: NCI-H69 s.c. in nude mice; intravenously 10 mg/kg/day for five days
Protocol: as §1

[14] = system: NCI-H526 (SCLC) human cancer cell line; test: NCI-H526 subcutaneous xenograft in nude mice, relative tumor volume ratio; format: in vivo
Protocol: as §1

[15] = system: OVCAR3 (ovarian) human cancer cell line; test: OVCAR3 subcutaneous xenograft in nude mice, relative tumor volume ratio; format: in vivo; conditions: OVCAR3 s.c. in nude mice; intravenously 10 mg/kg/day for five days
Protocol: as §1, §3

[16] = system: NCI-H596 (NSCLC) human cancer cell line; test: NCI-H596 subcutaneous xenograft in nude mice, relative tumor volume ratio; format: in vivo; conditions: NCI-H596 s.c. in nude mice; intravenously 10 mg/kg/day for five days
Protocol: as §1, §3

[17] = system: NCI-H146 (SCLC) human cancer cell line; test: NCI-H146 subcutaneous xenograft in nude mice, relative tumor volume ratio; format: in vivo
Protocol: as §1

[18] = system: DU145 (prostate) human cancer cell line; test: DU145 subcutaneous xenograft in nude mice, relative tumor volume ratio; format: in vivo; conditions: DU145 s.c. in nude mice; intravenously 10 mg/kg/day for five days
Protocol: as §1, §2

[19] = system: NCI-H510 (SCLC) human cancer cell line; test: NCI-H510 subcutaneous xenograft in nude mice, relative tumor volume ratio; format: in vivo; conditions: NCI-H510 s.c. in nude mice; intravenously 10 mg/kg/day for five days
Protocol: as §1

[20] = system: Lu99 (NSCLC) human cancer cell line; test: Lu99 subcutaneous xenograft in nude mice, relative tumor volume ratio; format: in vivo; conditions: Lu99 s.c. in nude mice; intravenously 10 mg/kg/day for five days
Protocol: as §1

[21] = system: KPL-4 (breast) human cancer cell line; test: KPL-4 subcutaneous xenograft in nude mice, relative tumor volume ratio; format: in vivo; conditions: KPL-4 s.c. in nude mice; intravenously 10 mg/kg/day for five days
Protocol: as §1

[22] = system: SK-OV-3 (ovarian) human cancer cell line; test: SK-OV-3 subcutaneous xenograft in nude mice, relative tumor volume ratio; format: in vivo; conditions: SK-OV-3 s.c. in nude mice; intravenously 10 mg/kg/day for five days
Protocol: as §1

[23] = system: HT-29 (colorectal) human cancer cell line; test: HT-29 subcutaneous xenograft in nude mice, relative tumor volume ratio; format: in vivo; conditions: HT-29 s.c. in nude mice; intravenously 10 mg/kg/day for five days
Protocol: as §1, §2

[24] = system: MDA-MB468 (breast) human cancer cell line; test: MDA-MB468 subcutaneous xenograft in nude mice, relative tumor volume ratio; format: in vivo; conditions: MDA-MB468 s.c. in nude mice; intravenously 10 mg/kg/day for five days
Protocol: as §1

[25] = system: HBC4 (breast) human cancer cell line; test: HBC4 subcutaneous xenograft in nude mice, relative tumor volume ratio; format: in vivo; conditions: HBC4 s.c. in nude mice; intravenously 10 mg/kg/day for five days
Protocol: as §1

[26] = system: human colon cancer cell line (WiDr); conditions: reported in WO 03/099813 and related filings; cited from earlier work
[27] = system: human breast cancer cell line (BSY-1); conditions: reported in WO 02/060890, WO 03/099813, WO 04/011661; cited from earlier work

| Compound | Tumor volume ratio (T/C %) [1] [%] | Tumor volume ratio (T/C %) [2] [%] | Tumor volume ratio (T/C %) [4] [%] | Tumor volume ratio (T/C %) [5] [%] | Tumor volume ratio (T/C %) [6] [%] | Tumor volume ratio (T/C %) [7] [%] | Tumor volume ratio (T/C %) [8] [%] | Tumor volume ratio (T/C %) [9] [%] | Tumor volume ratio (T/C %) [10] [%] | Tumor volume ratio (T/C %) [11] [%] | Tumor volume ratio (T/C %) [15] [%] | Tumor volume ratio (T/C %) [16] [%] | Tumor volume ratio (T/C %) [18] [%] | Tumor volume ratio (T/C %) [23] [%] | Antitumor activity to WiDr (in words) [26] | other results |
| --- | --- | --- | --- | --- | --- | --- | --- | --- | --- | --- | --- | --- | --- | --- | --- | --- |
| CCC(O)C(C)C1OC1CC(C)(O)/C=C/C=C(\C)C1OC(=O)CC(O)CCC(C)(O)C(OC(=O)N2CCN(C3CCCCCC3)CC2)/C=C/C1C (stereo not drawn) [Compound 2, (8E,12E,14E)-7-((4-cycloheptylpiperazin-1-yl)carbonyl)oxy-3,6,16,21-tetrahydroxy-6,10,12,16,20-pentamethyl-18,19-epoxytricosane-8,12,14-trien-11-olide] | 3 | 28 | 42 | 33 | 0 | 2 | 0 | 4 | 47 | 28 | 0 | 18 | 28 | 28 |  | Tumor volume ratio (T/C %) [3]: 55%; Sensitivity of the cancer cell line to the compound (in words) ([5]; H460 xenograft in nude mice): low sensitivity; Sensitivity of the cancer cell line to the compound (in words) ([8]; BSY-1 xenograft in nude mice): high sensitivity until remission; Tumor volume ratio (T/C %) [12]: 34%; Tumor volume ratio (T/C %) [13]: 1%; Sensitivity of the cancer cell line to the compound (in words) ([14]; H526 xenograft in nude mice): high sensitivity without remission; Tumor volume ratio (T/C %) ([14]; NCI-H526 s.c. in nude mice, intravenously 10 mg/kg/day for five days): 1%; Tumor volume ratio (T/C %) ([17]; NCI-H146 s.c. in nude mice, intravenously 10 mg/kg/day for five days): 1%; Course of the tumor (in words) ([17]; NCI-H146 xenograft in nude mice, tumor not eliminated): consecutive reduction of the tumor for a long term; Tumor volume ratio (T/C %) [19]: 10%; Tumor volume ratio (T/C %) [20]: 8%; Tumor volume ratio (T/C %) [21]: 23%; Tumor volume ratio (T/C %) [22]: 27%; Tumor volume ratio (T/C %) [24]: 0%; Tumor volume ratio (T/C %) [25]: 5% |
| CCC(O)C(C)C1OC1CC(C)(O)/C=C/C=C(\C)C1OC(=O)CC(O)CCC(C)(O)C(OC(=O)N2CCN(C(C)C)CC2)/C=C/C1C (stereo not drawn) [Compound 3, (8E,12E,14E)-3,6,16,21-tetrahydroxy-7-((4-isopropylpiperazin-1-yl)carbonyl)oxy-6,10,12,16,20-pentamethyl-18,19-epoxytricosane-8,12,14-trien-11-olide] | 1 | 19 |  |  | 0 | 4 | 2 | 4 |  |  |  |  | 34 | 26 | antitumor activity |  |
| CCC(O)C(C)C1OC1CC(C)/C=C/C=C(\C)C1OC(=O)CC(O)CCC(C)(O)C(OC(C)=O)/C=C/C1C (stereo not drawn) [Compound 1, (8E,12E,14E)-7-acetoxy-3,6,21-trihydroxy-6,10,12,16,20-pentamethyl-18,19-epoxytricosane-8,12,14-trien-11-olide] | 33 |  | 64 | 53 |  | 20 | 0 | 29 | 59 | 50 | 23 | 76 | 26 | 58 |  | Antitumor activity to BSY-1 (in words) [27]: high sensitivity; also recorded: high antitumor activity |
| CCC(O)C(C)C1OC1CC(C)(O)/C=C/C=C(\C)C1OC(=O)CC(O)CCC(C)(O)C(OC(=O)N2CCN(C)CC2)/C=C/C1C (stereo not drawn) [Compound 4, (8E,12E,14E)-3,6,16,21-tetrahydroxy-6,10,12,16,20-pentamethyl-7-((4-methylpiperazin-1-yl)-carbonyl)oxy-18,19-epoxytricosane-8,12,14-trien-11-olide] | 5 |  |  |  |  | 3 |  | 7 |  |  |  |  | 26 | 46 | antitumor activity |  |
